molecular target: T1, Human complement C1s enzyme (Homo sapiens, UniProt P09871); assay: Human C1s enzyme assay; type: biochemical; conditions: human complement C1s enzyme 1.16 nM, substrate Z-L-Lys-SBzl, A405; read-out: IC50 (Stars)
T1 construct: purified from human serum, Complement Technology, Inc; purchased Complement Technology, Inc; host or cells: human serum (plasma-derived native protein)
T1 sequence (P09871 438-688 limits assumed): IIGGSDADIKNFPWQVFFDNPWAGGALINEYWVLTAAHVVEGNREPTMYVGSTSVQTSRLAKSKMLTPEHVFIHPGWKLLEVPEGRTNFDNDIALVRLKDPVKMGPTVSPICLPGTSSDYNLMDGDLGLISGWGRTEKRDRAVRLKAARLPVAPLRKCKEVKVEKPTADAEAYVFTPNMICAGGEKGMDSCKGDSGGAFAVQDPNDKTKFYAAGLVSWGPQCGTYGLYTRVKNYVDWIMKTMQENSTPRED
T1 sequence (P09871 16-437 partner limits assumed): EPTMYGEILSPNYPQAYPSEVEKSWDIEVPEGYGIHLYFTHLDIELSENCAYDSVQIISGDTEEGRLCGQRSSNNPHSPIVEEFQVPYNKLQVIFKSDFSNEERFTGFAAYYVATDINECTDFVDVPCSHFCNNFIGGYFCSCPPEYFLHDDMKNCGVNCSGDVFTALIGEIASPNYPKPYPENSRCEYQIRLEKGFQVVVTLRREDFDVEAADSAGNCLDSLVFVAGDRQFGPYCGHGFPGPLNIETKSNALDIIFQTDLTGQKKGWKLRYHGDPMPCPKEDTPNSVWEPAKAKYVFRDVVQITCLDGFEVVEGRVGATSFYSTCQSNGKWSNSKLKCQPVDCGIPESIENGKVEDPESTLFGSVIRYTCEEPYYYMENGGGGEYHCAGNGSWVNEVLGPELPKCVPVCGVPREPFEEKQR
Procedure, shortened: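 Serum-purified human C1s (1.16 nM final) preincubated 5 min at room temperature with compound in 50 mM Tris, 1 M NaCl, pH 7.5. Z-L-Lys-SBzl and DTNB added at 100 μM each; A405 recorded every 30 s. IC50 from nonlinear regression of reaction rates versus compound concentration.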

Structure (SMILES)	IC50
O=C(Cn1c(-c2ccc(S(F)(F)(F)(F)F)cc2)ncc(NCc2ccc3c(c2)-c2ccccc2C3(F)F)c1=O)NCc1cc2cnccc2[nH]1 [Compound 255, N-((1H-pyrrolo[3,2-c]pyridine-2-yl)methyl)-2-(5-(((9,9-difluoro-9H-fluoren-3-yl)methyl)amino)-6-oxo-2-(4-(pentafluoro-λ^6-sulfaneyl)phenyl)pyrimidin-1(6H)-yl)acetamide]	< 0.1 µM
C[C@@H](Nc1cnc(-c2cccnc2)n(CC(=O)NCc2cc3cnccc3[nH]2)c1=O)c1ccc2oc3ccccc3c2c1 [Compound 335, (R)-N-((1H-pyrrolo[3,2-c]pyridin-2-yl)methyl)-2-(5-((1-(dibenzo[b,d]furan-2-yl)ethyl)-amino)-6-oxo-2-(pyridin-3-yl)-pyrimidin-1(6H)-yl)acetamide]	< 0.1 µM
O=C(Cn1c(-c2ccccc2)ncc(NCc2ccc3c(c2)oc2ccccc23)c1=O)NCc1cc2cnccc2[nH]1 [Compound 26, N-((1H-pyrrolo[3,2-c]pyridin-2-yl)methyl)-2-(5-((dibenzo[b,d]furan-3-ylmethyl)amino)-6-oxo-2-phenylpyrimidin-1(6H)-yl)acetamide]	< 0.1 µM
O=C(Cn1c(-c2ccccc2)ncc(NC(=O)c2ccc(Oc3ccc(Br)cc3)cc2)c1=O)NCc1cc2cnccc2[nH]1 [Compound 51, N-(1-(2-(((1H-pyrrolo[3,2-c]pyridin-2-yl)methyl)amino)-2-oxoethyl)-6-oxo-2-phenyl-1,6-dihydropyrimidin-5-yl)-4-(4-bromophenoxy)benzamide]	< 0.1 µM
C[C@@H](Nc1cnc(-c2ccccc2)n(CC(=O)N[C@H](C)c2cc3cnccc3[nH]2)c1=O)c1ccc2oc3ccccc3c2c1 [Compound 294, N-((R)-1-(1H-pyrrolo[3,2-c]pyridin-2-yl)ethyl)-2-(5-(((R)-1-(dibenzo[b,d]furan-2-l)ethyl)-amino)-6-oxo-2-phenylpyrimi-din-1(6H)-yl)acetamide]	0.1 to 1 µM
C[C@H](NC(=O)Cn1c(-c2ccccc2)ncc(N[C@H](C)c2ccc3oc4ccccc4c3c2)c1=O)c1cc2cnccc2[nH]1 [Compound 239, N-((S)-1-(1H-pyrrolo[3,2-c]pyridin-2-yl)ethyl)-2-(5-(((R)-1-(dibenzo[b,d]furan-2-yl)-ethyl)amino)-6-oxo-2-phenyl-pyrimidin-1(6H)-yl)acetamide]	> 1 µM
O=C(Cn1c(-c2ccccc2)ncc(NC(=O)c2ccc(-c3cccs3)cc2)c1=O)NCc1cc2cnccc2[nH]1 [Compound 56, N-(1-(2-(((1H-pyrrolo[3,2-c]pyridin-2-yl)methyl)amino)-2-oxoethyl)-6-oxo-2-phenyl-1,6-dihydropyrimidin-5-yl)-4-(thiophen-2-yl)benzamide]	< 0.1 µM

The remaining lines, values ahead:

IC50	Structure (SMILES)
< 0.1 µM	O=C(Cn1c(-c2ccccc2F)cnc(N[C@H](CF)c2ccc3oc4ccccc4c3c2)c1=O)NCc1cc2cnccc2[nH]1 [Compound 443, (S)-N-((1H-pyrrolo[3,2-c]pyridin-2-yl)methyl)-2-(3-((1-(dibenzo[b,d]furan-2-yl)-2-fluoroethyl)amino)-6-(2-fluorophenyl)-2-oxopyrazin-1(2H)-yl)acetamide]
> 1 µM	C[C@@H](Nc1cnc(-c2ccccc2F)n([C@@H](C)C(=O)NCc2cc3cnccc3[nH]2)c1=O)c1ccc2oc3ccccc3c2c1 (single isomer, unassigned) [Compound 363, (S*)—N-((1H-pyrrolo[3,2-c]pyridine-2-yl)methyl)-2-(5-(((R)-1-(dibenzo[b,d]furan-2-yl)ethyl)amino)-2-(2-fluorophenyl)-6-oxopyrimidin-1(6H)-yl)propenamide]
< 0.1 µM	C[C@@H](Nc1ncc(-c2cscn2)n(CC(=O)NCc2cc3cnccc3[nH]2)c1=O)c1ccc2oc3ccccc3c2c1 [Compound 429, (R)-N-((1H-pyrrolo[3,2-c]pyridin-2-yl)methyl)-2-(3-((1-(dibenzo[b,d]furan-2-yl)ethyl)-amino)-2-oxo-6-(thiazol-4-yl)-pyrazin-1(2H)-yl)acetamide]

Source: patent publication US20260184707A1, “PHARMACEUTICAL COMPOUNDS FOR THE TREATMENT OF COMPLEMENT MEDIATED DISORDERS” (ALEXION PHARMACEUTICALS, INC., priority 2022, published 2026)
